Test systems include HOP-92; MCF7; LOX IMVI; M14; SR; OVCAR-5; RPMI-8226; SK-MEL-5; 786-0; ACHN; MDA-N; TK-10; SN12C; RXF 393; SNB-19; PC-3; SK-MEL-2; DMS-273; KM12; A549.
Holding throughout (experiment): growth of human tumour cells (NCI), 48 h

SMILES strings stand for the structures.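 Values below derive from 48-hour exposures of cells grown in 96-well plates, with endpoints linearly interpolated between the two concentrations bracketing the appropriate inhibition level. Here, GI50 denotes the concentration required for 50% inhibition of growth.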 The source made the active and inactive calls. Rule as the data show it: active = GI50 up to about 1.1 µM and inactive = higher. A value given as a limit tells only on which side of the number the result lay.

Consider `COc1cc(C2c3cc4c(cc3[C@H](NC(=O)c3cccs3)C3COC(=O)[C@H]23)OCO4)cc(OC)c1OC` (some centres not stated), for which the GI50 in the assay with HOP-92 is 19.8 nM (active); with MCF7 it was < 10 nM (active); with LOX IMVI it was < 10.7 nM (active); with M14, < 19.7 nM (active); with SR, 12.2 nM (active); in the assay on OVCAR-5, > 46900 nM (inactive). The GI50 with RPMI-8226 is 13.4 nM (active); in the assay on SK-MEL-5, < 14 nM (active); with 786-0, < 22.1 nM (active); in the assay with ACHN, < 17.4 nM (active); in the assay on MDA-N it was < 10 nM (active); in the assay with TK-10 it was > 40900 nM (inactive). Also, the GI50 in the assay with SN12C was < 18.7 nM (active); in the assay on RXF 393 it was 13.3 nM (active); with SNB-19, < 18 nM (active); in the assay on PC-3, < 10 nM (active); in the assay with SK-MEL-2, 34100 nM (inactive); with DMS-273, 18.8 nM (active). Moreover, the GI50 was < 10 nM (active) with KM12 and < 19 nM (active) in the assay on A549.

Consider `Cc1nc(N)nc(N)c1-c1ccc(Cl)c(Cl)c1` [METOPRINE], for which the GI50 in the assay with HOP-92 was 7600 nM (inactive); with MCF7 it was 826 nM (active); with LOX IMVI, 54 nM (active); with M14, 162 nM (active); in the assay with SR, 308 nM (active); in the assay on OVCAR-5, 14200 nM (inactive). Further, the GI50 was 6280 nM (inactive) with RPMI-8226; 409 nM (active) in the assay with SK-MEL-5; 273 nM (active) in the assay on 786-0; 495 nM (active) in the assay on ACHN; 141 nM (active) with MDA-N; 9200 nM (inactive) with TK-10. The GI50 in the assay with SN12C is 664 nM (active); in the assay on RXF 393, 13200 nM (inactive); with SNB-19, 2690 nM (inactive); in the assay with PC-3, 78.5 nM (active); with SK-MEL-2, 30800 nM (inactive); in the assay on DMS-273 it was 157 nM (active). Moreover, the GI50 with KM12 was 3050 nM (inactive); in the assay on A549, 32.5 nM (active).

As to `O=C1c2ccccc2-c2ccccc2C(=O)C1(Br)Br`, the GI50 is 3210 nM (inactive) in the assay with HOP-92; 9270 nM (inactive) with LOX IMVI; 5330 nM (inactive) with M14; 2020 nM (inactive) in the assay on SR; 18100 nM (inactive) with OVCAR-5; 1840 nM (inactive) in the assay on RPMI-8226. The GI50 with SK-MEL-5 was 17300 nM (inactive); in the assay on 786-0, 13000 nM (inactive); in the assay on ACHN, 11700 nM (inactive); in the assay on TK-10, 10600 nM (inactive); in the assay with SN12C it was 11800 nM (inactive); in the assay with RXF 393 it was 3560 nM (inactive). For the same molecule, the GI50 is 17700 nM (inactive) in the assay on SNB-19; 9750 nM (inactive) with SK-MEL-2; 15600 nM (inactive) in the assay with DMS-273; 17700 nM (inactive) with KM12; 17700 nM (inactive) in the assay on A549.

These data come from ChEMBL document CHEMBL1201862, “PubChem BioAssay data set” (2004).
